Laboratory results as given in a melting point compilation (Tetko et al.).

Structure (SMILES)	melting point [°C]
COC(=O)c1ccccc1S(=O)(=O)Nc1ccccc1Cl	97 to 99
Brc1ccc(Cc2nnn[nH]2)cc1	172 to 174
NC1(C(=O)O)CCCCC1	300 to 302
O=C(O)CNC(=O)C1CCC1	107 to 109
CC(CN(C)C(=O)OC(C)(C)C)C(N)=NO (stereo unspecified)	124 to 126
O=C(O)CN(Cc1ccccc1)Cc1ccccc1	195 to 197
Cc1n[nH]c(C(=O)O)c1O	184 to 186
CC1CC(C)CN(S(=O)(=O)c2ccc(N)cc2)C1 (stereo unspecified)	157 to 159
Cc1nc(S)c2c(C)c(C)sc2n1	193 to 195
NCCc1ccc(CO)cc1	35 to 37
Cc1cc(Br)c(C)c(S(=O)(=O)Cl)c1	163 to 165
CC(C)c1cc(=O)oc2cc(O)ccc12	77 to 79
O=C1NC(=O)C(Cc2ccccc2)(c2ccccc2)N1 (stereo unspecified)	209 to 211
NC(=O)CCC1CCCCC1	116 to 118
C=CC(=O)Nc1ccc(OC)cc1[N+](=O)[O-]	124 to 126
O=[N+]([O-])c1ccc(N2CCNCC2)cn1	147 to 149
Cc1csc(C2(N)CCCC2)n1	59 to 61
CC(C)(C)OC(=O)N1CCC(CC(=O)O)(C(=O)O)C1 (stereo unspecified)	180 to 182
O=[N+]([O-])c1ccc(Cl)c(S(=O)(=O)Cl)c1	85 to 87
O=[N+]([O-])c1cc(F)cc(S(=O)(=O)Cl)c1	40 to 42
CN1CCN(c2ccc(CO)cc2F)CC1	87 to 89
O=C(Nc1ccc(C(=O)O)c(O)c1)c1ccc(Cl)c(Cl)c1	272 to 274
NC1CCCc2[nH]ccc21 (stereo unspecified)	83 to 85
N#Cc1ccc(S(=O)(=O)Cl)cn1	67 to 69
COc1ccc(-c2nc(N)sc2-c2ccc(OC)cc2)cc1	207 to 209
Nc1ccc(Oc2ccc(F)cc2)cn1	74 to 76
FC(F)(F)c1cccc(-c2ccc(Cl)nn2)c1	133 to 135

Structure (SMILES)	melting point [°C]
Brc1ccc(-n2cccn2)cc1	69 to 71
Cn1c(Cl)cc(=O)[nH]c1=O	195 to 197
CC(Cl)C(=O)N(c1nccs1)C1CCCCC1 (stereo unspecified)	82 to 84
Cc1ccc([N+](=O)[O-])cc1S(=O)(=O)Nc1ccccc1C(=O)O	290 to 292
Cc1c(C(=O)O)cnn1C1CCOCC1	207 to 209
CN(C)S(=O)(=O)c1ccc(O)cc1	95 to 97
c1ccc(-c2nnn[nH]2)nc1	214 to 216
O=C1CC(c2ccccc2)CN1 (stereo unspecified)	70 to 72
CC(C)C(Cl)C(=O)O (stereo unspecified)	33 to 35
N#Cc1c(Cl)nc2ccccn12	181 to 183
CC(Cl)C(=O)N1CCCC(C(N)=O)C1 (stereo unspecified)	114 to 116
CN(C)S(=O)(=O)c1ccc(C(=O)O)cc1Br	185 to 187
Cc1c(C(=O)O)sc2ccc(F)cc12	289 to 291
N#Cc1ccc(S(=O)(=O)Cl)c([N+](=O)[O-])c1	119 to 121
Cc1cc(C(=O)CCl)c(C)cc1Br	79 to 81
CS(=O)(=O)c1cc(C(=O)O)cs1	204 to 206
O=C(c1cc(Cl)c[nH]1)C(Cl)(Cl)Cl	128 to 130
O=C1CCNc2ccc(F)cc21	49 to 51
CC(C)(C)OC(=O)N[C@H]1C[C@H](N)C1	60 to 62
Nc1nc(CCl)nc2sc3c(c12)CCCCC3	174 to 176
Cn1c(Cl)c(C=O)c2ccccc21	92 to 94
c1ccc2[nH]c(C3CCCNC3)nc2c1 (stereo unspecified)	189 to 191
Cc1cccn2c(C=O)cnc12	83 to 85
CC1(Br)CS(=O)(=O)CC1Br (stereo unspecified)	126 to 128
O=c1[nH]c2ccc([N+](=O)[O-])cc2o1	242 to 244
CC(C)c1cc(N)no1	64 to 66
CCOC(=O)N1CCNC(=O)CC1	103 to 105

Structure (SMILES)	melting point [°C]
Nc1cc(F)cc(S(N)(=O)=O)c1	153 to 155
O=C(O)c1cc(-c2ccccc2)nc2c1cnn2Cc1ccncc1	279 to 281
Nc1ccc(OCC2CCCCC2)cc1	53 to 55
O=C(O)C(=Cc1ccc(Cl)cc1)c1ccc(F)cc1	204 to 206
O=C1CCc2c(F)ccc(Br)c21	129 to 131
COC(=O)c1cc(N)c(Br)cc1F	87 to 89
O=C(O)CNC(=O)C1CCOCC1	166 to 168
Nc1ccc(-c2nc3ccccc3s2)cc1N	165 to 169
Nc1ncc(Cc2ccc(F)c(F)c2)s1	97 to 99
Cc1n[nH]c(N)c1I	102 to 104
Cc1noc(C)c1S(=O)(=O)NCC(=O)O	113 to 115
Cc1noc(-c2ccc(N)c(Cl)c2)n1	141 to 143
Cc1coc(-c2cc(N)ccc2C)n1	52 to 54
COc1ccc(C(N)=NO)c(OC)c1	129 to 131
Cc1cc2ncc(Br)cn2n1	137 to 139
Cc1ccc(-c2nc(C)c(C(C)N)s2)cc1 (stereo unspecified)	57 to 59
COc1ccccc1NS(=O)(=O)c1ccc(N2CCOCC2)c(N)c1	150 to 152
O=C(CCl)NC1CCN(C(=O)C2CCCCC2)CC1	133 to 135
CC(C)CNC(=O)C(C)Cl (stereo unspecified)	37 to 39
OCCOC1CCNCC1	61 to 63
O=C(CCl)Nc1nc2c(s1)CCCC2	144 to 146
COc1ccccc1NS(=O)(=O)c1cccc(N)c1	35 to 37
COc1ccc(S(=O)(=O)Nc2ccccc2C(=O)O)cc1	183 to 185
Clc1ccc(-n2cccn2)c(Cl)c1	34 to 36
Cn1ncc(CN)c1N	91 to 93
CC(C)(C)C(=O)Nc1nccnc1C(=O)O	96 to 98

Now from value to compound:

melting point [°C]	Structure (SMILES)
99 to 101	NNC(=O)CNc1ccccc1F
120 to 122	O=C1NC(=O)C2(CCOc3ccccc32)N1 (stereo unspecified)
359 to 361	O=S(=O)(O)c1ccc2[nH]cnc2c1
260 to 262	Sc1nnc(C2CC2)n1Cc1ccco1
191 to 193	O=C(O)Cc1coc(-c2ccc(Cl)cc2)n1
65 to 73	CCOC(=O)c1c(-c2ccccc2Cl)csc1N
172 to 174	O=c1cc(CO)nc2ccccn12
105 to 107	O=C(O)CCCc1nc(-c2ccccc2)no1
44 to 46	COc1ncccc1NC(=O)OCC(F)(F)F
109 to 111	CCOC(=O)c1nnc(C)n1C1CC1
56 to 58	O=C1CSCc2ccccc21
71 to 73	Nc1ccc2c(c1)CCO2
70 to 72	CC(C)(C)OC(=O)CNc1ccc2c(c1)OCO2
187 to 189	COc1ccc(NC(=O)c2ccc(N)cc2)cc1
72 to 74	CC(C)c1cccc(C(C)C)c1NCCO
74 to 76	CC(C)Oc1ccc(CCC(=O)O)cc1
165 to 167	O=C(CCl)Nc1ccc([N+](=O)[O-])cc1Br
61 to 63	NC(=O)c1cccc(CS)n1
257 to 259	O=C(O)c1cc(N2CCOCC2)ccn1
111 to 113	Cn1c(Cl)nc2ccccc21
184 to 188	O=C(O)c1cccnc1SC(F)F
144 to 146	NC(=NOC(=O)CCCCl)c1cccs1

melting point [°C]	Structure (SMILES)
164 to 166	O=C(O)c1cc(OCC2CC2)c2ccccc2n1
87 to 89	O=C(O)CCCNC(=O)c1ccccc1
149 to 151	Cc1[nH]c2ccc(CN)cc2c1C
59 to 61	CC(C)(Oc1cccc(Cl)c1)C(=O)O
210 to 212	Cc1c[nH]c(=O)n1-c1ccccc1
316 to 318	NC(=O)c1ccc(=O)[nH]c1
77 to 79	NCc1ccc(-c2ccc3c(c2)CCO3)cc1
85 to 87	NC(=O)CCOc1ccccc1F
175 to 177	CC(=O)NCCc1ccc(C(=O)O)cc1
109 to 111	Cc1nc(C)n(Cc2cccc(N)c2)n1
173 to 175	CCOC(=O)Cc1cc(=O)oc2ccc(O)cc12
117 to 119	Cc1nc(-c2ccccc2)sc1N
170 to 172	Cn1c(CO)nc2cc(C(F)(F)F)ccc21
143 to 145	O=C(O)c1cc2ccc(C(F)(F)F)cc2[nH]1
149 to 151	Cc1ccc2cccnc2c1S(=O)(=O)Cl
121 to 123	Nc1c(O)cccc1F
180 to 182	Nc1cccc(NC(=O)Nc2cccc(C(F)(F)F)c2)c1
190 to 192	Nc1nc2c(s1)COc1ccccc1-2
169 to 171	O=C1CCCc2c1[nH]c1ccccc21
123 to 125	O=C(O)COc1ccc(S(=O)(=O)Cl)cc1Cl
247 to 249	O=C(O)c1csc(-c2ccc(Cl)s2)n1
223 to 225	COC(=O)c1cc(=O)c2ccccc2[nH]1

melting point [°C]	Structure (SMILES)
210 to 212	CC(=O)N(c1ccc(Cl)cc1)c1nc(C=O)cs1
200 to 203	CN1Cc2ccccc2NC1=O
97 to 101	NNC(=O)Cc1cn2ccsc2n1
50 to 57	Cc1ccc(C(C)(C)CC(=O)O)cc1
96 to 98	Nc1nc(Cc2ccc(Cl)cc2Cl)cs1
166 to 168	CCC(C)n1c(S)nnc1-c1ccccc1 (stereo unspecified)
159 to 162	Cc1csc(SCc2ccccc2C(=O)O)n1
281 to 283	O=C(O)C1CCN(c2ccc3cccc(O)c3n2)CC1
80 to 82	O=C(O)CSc1ccccc1F
124 to 126	CC(=O)NC1CNc2ccccc2C1 (stereo unspecified)
77 to 79	COc1ccc(C(=O)c2ccccc2Cl)cc1
74 to 76	Brc1cccc(-c2nnco2)c1
115 to 117	NC(=O)CCc1ccc([N+](=O)[O-])cc1[N+](=O)[O-]
193 to 195	CC(Br)C(=O)c1ccc2c(c1)CCC(=O)N2 (stereo unspecified)
194 to 196	NC(=O)Cc1ccc(Br)cc1
82 to 84	Cc1nc(N)sc1Cc1cccc(F)c1
111 to 113	BrCc1cn(-c2ccccc2)nn1
139 to 141	COc1cccc(C(N)(C(=O)O)C(F)(F)F)c1 (stereo unspecified)
108 to 110	COC(=O)CCNc1nc2ccccc2o1
112 to 114	Nc1cccc(-n2ccnc2)c1
114 to 116	Nc1cccc(C(=O)N2CCSCC2)c1
223 to 225	Cc1nc2ccnn2c(C)c1CCC(=O)O
